“Also recorded” adds a separate entry of the source.
Molecular target: SARS-CoV-2 NSP14/10 complex (ExoN activity) (Severe acute respiratory syndrome coronavirus 2, UniProt P0DTD1)
Assay: biochemical
Assay type: biochemical

| Compound | IC50 [µM] | NSP14/10-inhibitory activity (in words) |
| --- | --- | --- |
| CC(C)=CCc1c(O)ccc(C(=O)/C=C/c2ccc(O)cc2)c1O [#96, Isobavachalcone] | 17.4 ± 1.39 | – |
| O=C1Cc2ccccc2C(=O)N1O [N-Hydroxy-isoquinoline-1,3-dione, reference compound] | – | detectable NSP14/10-inhibitory activities |
| C[C@@H]1CCO[C@H]2Cn3cc(C(=O)NCc4ccc(F)cc4F)c(=O)c(O)c3C(=O)N12 [Dolutegravir, reference compound] | – | detectable NSP14/10-inhibitory activities |
| CC(C)=CCOc1ccc(/C=C/C(=O)c2ccc(OCC=C(C)C)cc2OCC(=O)O)cc1 [#102, Sofalcone, reference compound] | 22 ± 6.02 | – |
| Cc1ccc2ccc(C(=O)O)c(O)c2n1 [#38] | – | no observed inhibition; also recorded: does not inhibit NSP14 |
